A short description of data set [1]: Skin penetration test of methylparaben through hairless mouse skin (two-chamber). It is filed as in vitro ADME. The following applies: Example 2; donor side phosphate buffer pH 7 with stated composition; after 5 hours. The procedure: One (donor side) of two chambers separated by a hairless mouse skin was filled with a phosphate buffer (pH 7) having dissolved therein a substance having the composition described in Table 3 and the other (receiver side) was filled with a phosphate buffer solution (pH 7). After 5 hours, the concentration of methylparaben on the receiver side was measured. […] As will be apparent from the results, surfactin suppressed the skin penetration of skin-irritating substances.
One (donor side) of two chambers separated by a hairless mouse skin was filled with a cosmetic having the composition described in Table 6 and the other (receiver side) was filled with a phosphate buffer solution (pH 7). After 5 hours, the concentration of methylparaben on the receiver side was measured.
One (donor side) of two chambers separated by a hairless mouse skin was filled with a cosmetic having the composition described in Table 14 and the other (receiver side) was filled with a phosphate buffer solution (pH 7). After 5 hours, the concentration of methylparaben on the receiver side was measured.

For data set [2], the system named is three-dimensional skin model. Briefly: Skin irritation test: MTT cytotoxicity on three-dimensional cultured skin model. It is filed as cell-based. The conditions noted are these: test substance in PBS pH 7, 1 hour exposure, 16 hours incubation, read from graph.
Protocol: Using a three-dimensional skin model (trade name: Three-dimensional cultured skin model, manufactured by Gunze), skin irritation tests were performed. […] The test substances were adjusted with PBS (Phosphate Buffer Saline, pH 7) so that they were in various concentrations. To the thus-adjusted test substances was exposed the skin model for 1 hour. Thereafter, the test substances were washed and incubated for 16 hours in a medium attached to the above-described three-dimensional skin model. After the incubation, a solution of MTT (3-(4,5-dimethylthiazol-2-yl)-2,5-diphenyltetrazolium bromide) was added and pigments were extracted with isopropanol rendered acidic with hydrochloric acid, followed by measurement of absorbance at a wavelength of 570 nm. […] This value was called B. The MTT solution was added to PBS and extraction was performed similarly. Absorbance of the extract measured at a wavelength of 570 nm was named C. From these values was calculated cytotoxicity. Calculation was made according to the following equation. Cytotoxicity (%) = (1-(A-c)/(B-C)) x 100 [formula]
Plotting the concentration of a test substance on the axis of abscissa and cytotoxicity on the axis of ordinate, a graph was obtained, from which the concentration of a test compound at 50% cytotoxicity was read.

In the case of `COC(=O)c1ccc(O)cc1` [0.1% Methylparaben, Methylparaben], the “Concentration of methylparaben of receiver” value in data set [1] is on record as 5.7 ppm.

`CCCCCCCCCCCCOS(=O)(=O)[O-].[Na+]` [SDS, sodium dodecylsulfate, reference compound]: the “Concentration of surfactant at 50% cytotoxicity” value in data set [2] is 0.2%.

Source of the values: EP1082099B1, “SURFACTANT FOR USE IN EXTERNAL PREPARATIONS FOR SKIN AND EXTERNAL PREPARATION FOR SKIN CONTAINING THE SAME” (Showa Denko K K, priority 1998, dated 1999).
